{"source": "patent US20220117972A1", "about": "“USE OF PPAR-DELTA AGONISTS IN THE TREATMENT OF MITOCHONDRIAL MYOPATHY” (Reneo Pharmaceuticals, Inc., priority 2019, published 2022)", "key": {"[1]": {"test_system": "primary mitochondrial myopathy patients", "experiment": "clinical trial for primary mitochondrial myopathy (PMM)", "assay_type": "in vivo, human"}, "PGC1, CPT1b expression": {"test_system": "PGC1, CPT1b expression", "experiment": "in vivo gene expression in mouse muscle, second study (time course)", "details": "male C57BL/6 mice, 30 mg/kg once daily, at 48 hrs", "description": "In a second study, male C57BL/6 mice were dosed once daily for four consecutive days. On the first day of treatment all mice in each group received a single dose of either the vehicle or Compound 1 at 30 mg/kg. Following the dose administration on the first day, five mice from each group were anesthetized and euthanized at each of the following time points: 1, 2, 4, 8, 24, 48, 72 and 96 hours. Animals left after the time point 24 hours received the second dose. Animals left after the time point 48 hours received the third dose. Animals left after the time point 72 hours received the fourth dose. Mice designated for time point 96 hours were euthanized on day 5."}, "PPARα": {"target": "T1, PPARα (UniProt Q4PNY3)", "T1 construct": "This is inferred from the cell pool name 'UAS-bla-Gal4' and from the general description in b82 and b85", "T1 sequence (Q4PNY3 1-467)": "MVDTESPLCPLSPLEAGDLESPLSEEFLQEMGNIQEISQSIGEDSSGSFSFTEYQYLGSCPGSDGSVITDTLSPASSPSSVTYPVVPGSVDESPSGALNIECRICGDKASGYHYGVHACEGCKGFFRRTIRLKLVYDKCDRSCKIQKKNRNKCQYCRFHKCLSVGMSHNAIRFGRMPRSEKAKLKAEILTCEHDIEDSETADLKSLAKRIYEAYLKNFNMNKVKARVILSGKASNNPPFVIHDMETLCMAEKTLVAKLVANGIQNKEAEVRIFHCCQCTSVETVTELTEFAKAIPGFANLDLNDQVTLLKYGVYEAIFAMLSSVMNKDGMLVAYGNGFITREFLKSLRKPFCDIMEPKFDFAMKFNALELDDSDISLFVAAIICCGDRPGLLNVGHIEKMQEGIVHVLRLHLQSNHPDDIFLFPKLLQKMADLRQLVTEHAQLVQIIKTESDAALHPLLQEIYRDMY", "experiment": "PPAR receptor transactivation assay, monkey PPARα", "assay_type": "cell-based"}, "PPARγ [2]": {"target": "T2, PPARγ (Macaca mulatta, UniProt O18924)", "T2 construct": "expressed in transfected cells; host or cells: Jump-In GripTite HEK293", "T2 sequence (O18924 238-503 limits assumed)": "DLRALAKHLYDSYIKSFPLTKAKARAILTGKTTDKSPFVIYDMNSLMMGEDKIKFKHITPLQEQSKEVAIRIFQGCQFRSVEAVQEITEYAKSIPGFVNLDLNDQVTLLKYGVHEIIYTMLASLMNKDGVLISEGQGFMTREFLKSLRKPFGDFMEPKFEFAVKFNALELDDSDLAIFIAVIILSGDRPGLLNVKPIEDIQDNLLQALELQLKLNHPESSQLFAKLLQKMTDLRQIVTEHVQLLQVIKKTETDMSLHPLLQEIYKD", "experiment": "PPAR receptor transactivation assay, monkey PPARγ", "assay_type": "cell-based", "description": "(§1) The genes of interest were synthesized and cloned into an appropriate Jump-In™ retargeting vector following the User Guide of the Jump-In™ T-REx™ HEK293 Retargeting Kit (ThermoFisher Catalog No A15008). For example, the vector will be used to transfect and retarget the Jump-In™ HEK293 GripTite™ parental cell line. Stable pools will be antibiotic-selected for about 21 days and tested for target gene expression by functional assay.\n(§2) Jump-In™ GripTite™ HEK293 parental cells were plated at 60-80% confluency in a T-75 flask in growth medium without antibiotics and transfected with a 1:1 ratio of expression construct and R4 integrase expression construct (20 μg DNA total) using Lipofectamine® LTX (50 μL) and PLUS™ Reagent (20 μL). Following a 48 hours incubation, cells were selected with 600 μg/mL Geneticin® and 10 μg/mL Blasticidin for ˜21 days in growth medium.\nJump-In™ GripTite™ HEK293 rPPAR Alpha, Delta or Gamma UAS-bla-Gal4 cell pools were plated in a 384-well plate format (20,000 cells per well) in OptiMeM without FBS in replicates (n=4). […] After 16 hours, the cells were loaded with LiveBLAzer®, a fluorescent BLA substrate that gives a blue/green readout of expressing/non-expressing cells, respectively. The blue/green readout was measured on a fluorescent plate reader (Tecan Safire II)."}, "[3]": {"test_system": "human retinoid X receptor (hRXR)", "experiment": "human retinoid X receptor activity", "assay_type": "cell-based"}, "hPPARα": {"target": "T3, hPPARα (Homo sapiens, UniProt Q07869)", "T3 construct": "expressed in transfected cells; host or cells: Jump-In GripTite HEK293", "T3 sequence (Q07869 239-466 limits assumed)": "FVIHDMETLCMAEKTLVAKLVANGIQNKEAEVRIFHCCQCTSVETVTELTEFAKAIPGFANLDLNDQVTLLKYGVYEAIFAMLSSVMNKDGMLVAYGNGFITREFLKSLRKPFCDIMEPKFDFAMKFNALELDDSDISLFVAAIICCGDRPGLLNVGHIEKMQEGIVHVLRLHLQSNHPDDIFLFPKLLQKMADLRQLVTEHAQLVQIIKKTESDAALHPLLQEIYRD", "experiment": "PPAR receptor transactivation assay, human PPARα", "assay_type": "cell-based", "description": "Compound 1 was tested on all three human PPAR subtypes (hPPAR): hPPARα, hPPARγ, and hPPARδ. All assays were repeated at least three times for each subtype.\nas §1, §2\nJump-In™ GripTite™ HEK293 rPPAR Alpha, Delta or Gamma UAS-bla-Gal4 cell pools were plated in a 384-well plate format (20,000 cells per well) in OptiMeM without FBS in replicates (n=4). Cells were allowed to adhere for 8 hours before addition of Compound 1 (1 mM top concentration, 3-fold dilutions, 10-point titration). After 16 hours, the cells were loaded with LiveBLAzer®, a fluorescent BLA substrate that gives a blue/green readout of expressing/non-expressing cells, respectively. The blue/green readout was measured on a fluorescent plate reader (Tecan Safire II)."}, "PPARγ [4]": {"target": "T4, PPARγ (Mus musculus, UniProt P37238)", "T4 construct": "expressed in transfected cells; host or cells: Jump-In GripTite HEK293", "T4 sequence (P37238 238-503 limits assumed)": "T2 sequence (O18924 238-503 limits assumed) with S93N, V98I, S146N, L226V, Q245H", "experiment": "PPAR receptor transactivation assay, mouse PPARγ", "assay_type": "cell-based"}, "[5]": {"details": "PMM patients, 100 mg once daily for 12 weeks"}}, "note": "Substitutions are numbered along the chain they refer to. Entries after “also recorded” stand apart in the source; their conditions may differ. Like-named read-outs stand apart in the source and are kept apart here."}
{"smiles": "Cc1cc(OC/C=C(/c2ccc(F)cc2)c2ccc(C#CCN3CCOCC3)cc2)ccc1OCC(=O)O", "note": "[Compound 1, (E)-[4-[3-(4-Fluorophenyl)-3-[4-[3-(morpholin-4-yl)propynyl]phenyl]allyloxy]-2-methyl-phenoxy]acetic acid]", "values": [{"measurement": "Modified Fatigue Impact Scale scores", "setting": "[1]; [5]", "result": "trends towards increases"}, {"measurement": "brief pain index (BPI) score, mean", "setting": "[1]; [5]", "result": "decreased"}, {"measurement": "distance walked during a 12-minute walk test", "setting": "[1]; [5]", "result": "increase the distance walked; also recorded: Improvements"}, {"measurement": "peak VO2", "setting": "[1]; [5]", "result": "trends towards increases"}, {"measurement": "tolerability", "setting": "[1]; PMM subjects that participated in the study", "result": "well tolerated"}, {"measurement": "expression of CPT1b", "setting": "PGC1, CPT1b expression", "result": "increased the expression"}, {"measurement": "expression of PGC1", "setting": "PGC1, CPT1b expression", "result": "increased the expression"}, {"measurement": "EC50", "setting": "PPARα", "result": "> 1000", "unit": "nM"}, {"measurement": "EC50", "setting": "PPARγ [2]", "result": "> 1000", "unit": "nM"}, {"measurement": "hRXR activity", "setting": "[3]", "result": "did not show any"}, {"measurement": "EC50", "setting": "hPPARα; Human PPARα, read-out: EC50 (nM) Mean", "result": "> 10000", "unit": "nM"}, {"measurement": "EC50", "setting": "hPPARα; human PPARα, Example 12, read-out: EC50", "result": "> 10000", "unit": "nM"}, {"measurement": "activity on PPARα in transactivation assays", "setting": "hPPARα; in some cases", "result": "negligible activity"}, {"measurement": "agonist type at PPARα", "setting": "hPPARα; in some cases", "result": "partial agonist"}, {"measurement": "EC50", "setting": "PPARγ [4]", "result": "> 10000", "unit": "nM"}]}
